Reference: patent US9018249B2, “SGLT inhibitors” (Panacea Biotec Limited, priority 2011, dated 2015)

Key:
C57BL/6J mice = assay: Estimation of urinary glucose in C57BL/6J mice; type: in vivo, mouse; conditions: urine collected over 24 h
Experimental: Estimation of Urinary Glucose in C57BL/6J Mice
C57BL/6J mice were fasted 4 h before drug treatment. Fasted mice were weighed and randomized into different groups based on their body weight (n=6). At time T0 test compounds and standard compounds suspended in 0.25% CMC or PEG 400 formulation, were administered to respective groups and kept in metabolic cages (6 mice/cage) after dosing. Animals were fed after drug administration and urine was collected over a period of 24 h. Urinary volume was measured and urinary glucose was estimated using Merckotest Glucose Reagent (Merck Specialties Pvt. Ltd., India).

mouse SGLT-2 = target: T1, mouse SGLT-2 (Mus musculus, UniProt Q923I7); assay: Methyl-α-D-[U-14C]glucopyranoside uptake assay for SGLT-2 in CHO-K1 cells; type: cell-based; conditions: CHO-K1 cells expressing mSGLT-2, read-out: % inhibition of Methyl-α-D-[U-^14C] Glucopyranoside uptake (CHO-K1 cells) mediated by SGLT-2; for inhibition at 0.001 µM: 1 nM; for inhibition at 0.01 µM: 10 nM; for inhibition at 0.1 µM: 100 nM
T1 construct: Full-length mouse SGLT-2 cDNA was amplified from C57BL/6J mouse kidneys and introduced in the pcDNA3.1(+) expression vector; expressed in transfected cells; host or cells: CHO-K1 cells (American Type Culture Collection), stably transfected, G418-selected
T1 sequence (Q923I7 1-670): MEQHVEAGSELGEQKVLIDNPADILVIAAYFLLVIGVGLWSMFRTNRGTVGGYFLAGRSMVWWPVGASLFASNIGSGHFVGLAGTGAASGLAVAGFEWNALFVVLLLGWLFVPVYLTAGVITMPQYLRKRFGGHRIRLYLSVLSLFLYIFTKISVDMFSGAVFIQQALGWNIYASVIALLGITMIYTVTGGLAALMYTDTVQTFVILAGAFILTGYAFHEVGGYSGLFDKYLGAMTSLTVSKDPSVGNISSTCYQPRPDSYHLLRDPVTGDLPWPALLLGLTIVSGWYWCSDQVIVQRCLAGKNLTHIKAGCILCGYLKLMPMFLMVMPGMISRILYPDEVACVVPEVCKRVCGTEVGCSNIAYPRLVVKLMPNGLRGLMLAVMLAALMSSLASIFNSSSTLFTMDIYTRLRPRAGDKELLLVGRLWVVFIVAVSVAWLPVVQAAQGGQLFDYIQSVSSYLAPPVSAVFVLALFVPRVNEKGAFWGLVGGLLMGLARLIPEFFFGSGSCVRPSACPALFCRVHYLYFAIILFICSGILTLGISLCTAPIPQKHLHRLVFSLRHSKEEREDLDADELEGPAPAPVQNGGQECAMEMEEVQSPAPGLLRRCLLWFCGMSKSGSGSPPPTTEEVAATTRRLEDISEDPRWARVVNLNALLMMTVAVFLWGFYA
Experimental: Preparation of Mouse SGLT-2 Expressing Cells
Full-length mouse SGLT-2 cDNA was amplified from C57BL/6J mouse kidneys and introduced in the pcDNA3.1(+) expression vector (Invitrogen, Inc.) and propagated in Escherichia coli strain DH5α using LuriaBertani (LB) medium containing ampicillin. […] Stably transfected cells were selected using G418 antibiotic selection pressure.
Methyl-α-D-[U-^14C]Glucopyranoside Uptake Assay for SGLT-2
(§1) Cells expressing mSGLT-2 were seeded on 96-well tissue culture plates (Greiner, Inc.) in RPMI containing 10% FBS and 400 μg/mL G418 (0.8×10^5 cells per well in 200 μL medium) and incubated at 37° C. under 5% carbon dioxide for 24 h prior to the assay. Cells were washed twice with 200 μL of either sodium buffer (140 mM NaCl, 4.7 mM KCl, 2.2 mM CaCl2, 1.2 mM MgCl2, 10 mM Tris/Hepes, pH 7.4) or sodium-free buffer (137 mM N-methyl-glucamine, 4.7 mM KCl, 2.2 mM CaCl2, 1.2 mM MgCl2, 10 mM Tris/Hepes, pH 7.4). Reaction mixture containing test compounds at different concentrations diluted in assay buffer, 0.1 mM unlabeled Methyl-α-D-glucopyranoside and 1 μCi/well methyl-α-D-[U-^14C]glucopyranoside (American Radiochemicals) was added per well of a 96-well plate and incubated at 37° C. for 1 h. Cells were washed thrice with 200 μL of wash buffer (140 mM NaCl, 4.7 mM KCl, 2.2 mM CaCl2, 1.2 mM MgCl2, 10 mM Tris/Hepes, pH 7.4 containing 500 μM phlorizin) and lysed using 50 μL of 0.25N NaOH. Methyl-α-D-[U-^14C]glucopyranoside uptake was quantitated using a Top count scintillation counter (PerkinElmer, Inc.). All the test compounds were assayed in triplicates.

human SGLT-1 = target: T2, human SGLT-1 (Homo sapiens, UniProt P13866); assay: Methyl-α-D-[U-14C]glucopyranoside uptake assay for SGLT-1 in CHO-K1 cells; type: cell-based; conditions: CHO-K1 cells expressing hSGLT-1; for inhibition at 0.1 µM / inhibition at 1 µM / inhibition at 10 µM: read-out: % inhibition of Methyl-α-D-[U-^14C] Glucopyranoside uptake (CHO-K1 cells) mediated by SGLT-1
T2 construct: Full-length human SGLT-1 cDNA in the pCMV-XL-Neo expression vector was obtained from Origene Corporation; host or cells: CHO-K1 cells (American Type Culture Collection), stably transfected, G418-selected
T2 sequence (P13866 1-664): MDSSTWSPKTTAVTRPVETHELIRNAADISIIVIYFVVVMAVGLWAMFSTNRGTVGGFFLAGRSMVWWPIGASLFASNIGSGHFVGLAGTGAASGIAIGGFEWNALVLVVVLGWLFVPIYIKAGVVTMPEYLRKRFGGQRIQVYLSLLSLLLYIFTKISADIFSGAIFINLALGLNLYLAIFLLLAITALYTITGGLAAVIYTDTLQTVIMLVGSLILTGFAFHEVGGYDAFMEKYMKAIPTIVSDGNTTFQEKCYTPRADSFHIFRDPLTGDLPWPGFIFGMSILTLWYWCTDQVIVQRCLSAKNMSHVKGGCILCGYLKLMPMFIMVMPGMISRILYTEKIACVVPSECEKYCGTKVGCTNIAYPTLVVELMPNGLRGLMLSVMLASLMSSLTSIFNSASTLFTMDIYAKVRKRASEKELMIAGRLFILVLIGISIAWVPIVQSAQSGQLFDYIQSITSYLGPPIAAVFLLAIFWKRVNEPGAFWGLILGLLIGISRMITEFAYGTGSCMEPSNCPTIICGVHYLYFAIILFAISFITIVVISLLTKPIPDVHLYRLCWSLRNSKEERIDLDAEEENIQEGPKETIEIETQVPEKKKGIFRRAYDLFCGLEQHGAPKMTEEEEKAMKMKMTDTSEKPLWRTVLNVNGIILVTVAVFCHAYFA
Experimental: Preparation of Human SGLT-1 Expressing Cells
Full-length human SGLT-1 cDNA in the pCMV-XL-Neo expression vector was obtained from Origene Corporation and propagated in Escherichia coli strain DH5α using Luria-Bertani (LB) medium containing ampicillin. […] Stably transfected cells were selected using G418 antibiotic selection pressure.
Methyl-α-D-[U-^14C]Glucopyranoside Uptake Assay for SGLT-1
as §1, with “hSGLT-1” for “mSGLT-2”, “800 μg/ml” for “400 μg/mL”, “compounds” for “compounds at different concentrations”, “1” for “0.1”, “Methyl-α-D[U-^14C]glucopyranoside” for “Methyl-α-D-[U-^14C]glucopyranoside”

inhibition at 0.001 µM (mouse SGLT-2) [%] | inhibition at 0.01 µM (mouse SGLT-2) [%] | inhibition at 0.1 µM (mouse SGLT-2) [%] | inhibition at 0.1 µM (human SGLT-1; 100 nM) [%] | inhibition at 1 µM (human SGLT-1) [%] | inhibition at 10 µM (human SGLT-1) [%] | % inhibition of Methyl-α-D-[U-^14C] Glucopyranoside uptake (CHO-K1 cells) mediated by SGLT-1 (human SGLT-1; 100 nM) | SMILES | UGE in mice (in mg/g of feed consumed) at 3 mpk (C57BL/6J mice)
< 0 | 20.1 | 50.8 | 25.7 | 53.7 | 68.2 |  | CCON=CCOc1ccc(Cc2cc([C@]34OC[C@](CO)(O3)[C@@H](O)[C@H](O)[C@H]4O)ccc2Cl)cc1 [Compound 11] | 56.1 mg/g of feed consumed
40.2 | 37.9 | 77.2 |  | 70 | 92.9 | N.E. | CON=CCCOc1ccc(Cc2cc(C3O[C@H](OC)[C@@H](O)[C@H](O)[C@H]3O)ccc2Cl)cc1 (stereo partly shown) [Compound 29] | 
35.6 | 37.3 | 54 | 24 | 26.4 | 77.9 |  | CON=C(C)COc1ccc(Cc2cc(C3O[C@H](OC)[C@@H](O)[C@H](O)[C@H]3O)ccc2Cl)cc1 (stereo partly shown) [Compound 30] | 
